Reference: article PMC10821046, “Harmaline to Human Mitochondrial Caseinolytic Serine Protease Activation for Pediatric Diffuse Intrinsic Pontine Glioma Treatment” (Pharmaceuticals, 2024)

How the values were obtained:
hClpP = biological target: T1, hClpP (Homo sapiens, UniProt Q16740); assay: FITC-casein hClpP activity test; format: biochemical; conditions: 100 µM, normalized to 100 µM ONC201 activity
T1 construct: made in house; host or cells: E. coli BL21-CodonPlus (DE3)-RIL
Protocol: To assess the potency of the proteolytic activity of hClpP, a FITC–casein assay was performed. In a black, flat-bottom, 96-well plate, a 3 μM solution of purified hClpP in assay buffer (50 mM of HEPES, pH 7.5, 300 mM of KCl, 1 mM of DTT, 15% v/v glycerol; AB) preincubated at 37 °C for 15 min was added to 5 μL of the tested compounds in DMSO at different concentrations (ranging from 1 to 100 μM) and incubated for 15 min at 37 °C under shaking. As a control, three wells were filled with 5 µL of DMSO. The kinetic measurement was started after adding 2 µM of the fluorogenic peptides FITC and casein (Merck, C3777), used as hydrolytic substrates. The fluorescence of the cleaved FITC was recorded over 60 min at 37 °C on a Tecan Infinite M200 Pro (λex: 485 nm, emission λem: 535 nm, gain: 60). The slope in the linear range between 600 and 1800 s was determined and plotted against time. The EC50 for each tested compound was calculated using GraphPad Prism 7.05. Results are reported as the mean of two independent experiments performed in triplicate.

SU-DIPG-36 cells = assay: 2D cell viability assay (CCK8); format: cell-based, human; conditions: SU-DIPG-36, 100 µM, 72 h exposure
Protocol: (§1) Patient-derived diffuse intrinsic pontine glioma cell cultures (SU-DIPG-36, SU-DIPG-50) were provided by Dr Michelle Monje (Institutional Review Board (Stanford University) approval). The cells were cultured as a monolayer in media that was changed once a week at 37 °C in 5% CO2 by using Tumor Stem Media composed by: a 1:1 ratio of DMEM/F12 (Invitrogen)/Neurobasal (-A) (Invitrogen), B27 (-A) (Life Technologies, Milan, Italy), 20 ng/mL of human basic fibroblast growth factor (Life Technologies), 20 ng/mL of recombinant human epidermal growth factor (Life Technologies), 10 ng/mL of platelet-derived growth factor-AA, 10 ng/mL of platelet-derived growth factor-BB (Life Technologies), and 20 ng/mL of heparin (StemCell Technologies, Milan, Italy).
(§2) Then, 1 × 10^4 SU-DIPG-36 or SU-DIPG-50 cells/well in 100 µL of culture medium were seeded into 96-well plates and incubated O/N at 37 °C in CO2 (5%). […] Control wells with DMSO were used to evaluate the possible cytotoxicity of the solvent. […] Then, the absorbance was red (λ = 450 nm) with Tecan Infinite 200. GraphPad Prism allowed for the determination of IC50.

SU-DIPG-50 cells = assay: 2D cell viability assay (CCK8); format: cell-based, human; conditions: SU-DIPG-50, 100 µM, 72 h exposure
Protocol: as §1, §2

SH-SY-5Y spheroids = assay: 3D cell viability assay (CellTiter-Glo 3D, ATP); format: cell-based, human; conditions: 72 h; for viability at 100 µM: Homo sapiens, SH-SY5Y, ATP assay, mean ± SEM; for decrease in cell viability: SH-SY-5Y spheroids, highest concentration (100 µM)
SK-N-AS spheroids = assay: 3D cell viability assay (CellTiter-Glo 3D, ATP); format: cell-based, human; conditions: 72 h; for viability at 100 µM: Homo sapiens, SK-N-AS, ATP assay, mean ± SEM; for decrease in cell viability: SK-N-AS spheroids, highest concentration (100 µM)
P-gp = biological target: T2, P-gp (Homo sapiens, UniProt P08183); assay: Calcein-AM experiment in MDCK-MDR1 cells; format: cell-based
T2 construct: expressed in transfected cells; host or cells: MDCK-MDR1
T2 sequence (P08183 whole entry): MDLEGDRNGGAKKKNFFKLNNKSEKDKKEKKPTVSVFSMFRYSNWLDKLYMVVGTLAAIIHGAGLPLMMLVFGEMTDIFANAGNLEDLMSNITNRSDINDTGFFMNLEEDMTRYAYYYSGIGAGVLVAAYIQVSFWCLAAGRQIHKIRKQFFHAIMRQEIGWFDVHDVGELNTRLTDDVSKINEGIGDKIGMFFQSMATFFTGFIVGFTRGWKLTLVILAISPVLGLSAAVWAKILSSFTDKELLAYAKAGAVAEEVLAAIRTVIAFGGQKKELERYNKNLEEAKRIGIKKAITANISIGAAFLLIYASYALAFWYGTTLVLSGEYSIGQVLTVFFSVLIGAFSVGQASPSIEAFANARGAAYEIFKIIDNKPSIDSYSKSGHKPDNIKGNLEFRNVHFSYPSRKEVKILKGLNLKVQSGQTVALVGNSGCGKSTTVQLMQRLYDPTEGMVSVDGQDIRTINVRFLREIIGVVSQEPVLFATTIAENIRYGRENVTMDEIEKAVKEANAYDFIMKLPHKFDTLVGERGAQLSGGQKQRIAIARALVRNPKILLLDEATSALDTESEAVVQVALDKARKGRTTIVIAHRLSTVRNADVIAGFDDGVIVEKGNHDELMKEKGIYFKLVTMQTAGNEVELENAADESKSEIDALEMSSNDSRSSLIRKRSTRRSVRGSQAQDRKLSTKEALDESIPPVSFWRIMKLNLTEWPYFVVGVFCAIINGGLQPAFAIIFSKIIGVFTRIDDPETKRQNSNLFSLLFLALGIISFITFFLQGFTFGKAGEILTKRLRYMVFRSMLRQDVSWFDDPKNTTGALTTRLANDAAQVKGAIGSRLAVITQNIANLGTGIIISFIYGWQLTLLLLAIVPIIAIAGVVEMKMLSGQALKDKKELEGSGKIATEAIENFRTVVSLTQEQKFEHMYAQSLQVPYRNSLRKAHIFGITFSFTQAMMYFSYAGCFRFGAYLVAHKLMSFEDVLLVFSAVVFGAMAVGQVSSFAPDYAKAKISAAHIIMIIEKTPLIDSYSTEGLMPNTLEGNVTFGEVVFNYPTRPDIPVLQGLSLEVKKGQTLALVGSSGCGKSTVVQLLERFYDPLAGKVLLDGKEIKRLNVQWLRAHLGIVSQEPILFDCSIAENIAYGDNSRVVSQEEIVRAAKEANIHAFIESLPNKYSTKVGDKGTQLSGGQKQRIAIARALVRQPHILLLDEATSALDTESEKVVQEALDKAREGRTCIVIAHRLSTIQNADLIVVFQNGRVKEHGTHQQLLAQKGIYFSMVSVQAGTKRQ
Protocol: Here, 3 × 10^4 MDCK-MDR1 cells/well were seeded (100 µL) in a black 96-well culture plate and incubated in CO2 (5%) at 37 °C O/N. The compounds to be tested were added at different concentrations (0.1–100 µM) in 100 µL of culture medium and then incubated for 30 min. […] The fluorescence of the wells containing the tested compounds was compared with that of those containing the untreated cells. The percentage of fluorescence as a function of log[dose] allowed the EC50 values to be determined.

[1] = Drug transport experiments, Caco-2 monolayer; format: in vitro ADME; conditions: human, 1 × 10^−4 M
From the text: The experiment started with the preparation of the Caco-2 monolayer, which occurred by seeding the cells (20,000/well) in Millicell plates (Millipore, Milan, Italy). Its growth was followed for 21 days by changing the medium occasionally and measuring its transepithelial electrical resistance (TEER) daily using an epithelial voltohmmeter (Millicell-ERS) until at least […] was reached.
After 21 days, the plate was washed twice with Hank’s balanced salt solution (HBSS) (Invitrogen). After the second wash, the wells were filled with buffer, and the plate was kept at 37 °C for 30 min. After the incubation time, the HBSS buffer was replaced with the solutions of the compounds to be tested at a concentration of 1 × 10^−4 M. The plates were placed in an incubator at 37 °C for 120 min. The apparent permeability (Papp), in units of nm s^−1, was calculated.

BCRP = biological target: T3, BCRP (Homo sapiens, UniProt Q9UNQ0); assay: Hoechst 33342 experiment in MDCK-BCRP cells; format: cell-based; conditions: Hoechst 33342, MDCK-BCRP cells
T3 construct: expressed in transfected cells; host or cells: MDCK-BCRP
T3 sequence (Q9UNQ0 1-655): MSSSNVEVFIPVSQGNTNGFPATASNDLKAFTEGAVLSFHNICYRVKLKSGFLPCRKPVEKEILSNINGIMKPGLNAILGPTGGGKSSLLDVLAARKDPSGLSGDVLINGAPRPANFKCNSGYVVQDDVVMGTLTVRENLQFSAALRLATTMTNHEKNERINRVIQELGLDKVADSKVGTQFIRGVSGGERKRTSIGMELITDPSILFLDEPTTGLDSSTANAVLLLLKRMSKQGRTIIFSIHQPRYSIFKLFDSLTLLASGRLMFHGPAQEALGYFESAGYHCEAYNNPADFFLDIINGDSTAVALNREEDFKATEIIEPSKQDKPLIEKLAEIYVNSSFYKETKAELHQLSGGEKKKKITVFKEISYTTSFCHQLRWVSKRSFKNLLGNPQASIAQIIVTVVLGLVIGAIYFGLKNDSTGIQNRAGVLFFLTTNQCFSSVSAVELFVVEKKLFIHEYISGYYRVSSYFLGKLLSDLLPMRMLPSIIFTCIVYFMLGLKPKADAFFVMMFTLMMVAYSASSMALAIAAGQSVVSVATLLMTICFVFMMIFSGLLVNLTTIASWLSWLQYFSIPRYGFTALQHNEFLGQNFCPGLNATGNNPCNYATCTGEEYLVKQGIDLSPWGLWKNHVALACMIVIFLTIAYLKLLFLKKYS
Protocol: Firstly, 3 × 10^4 MDCK-BCRP cells/well were seeded (100 µL) in a 96-well black culture plate and brought to O/N confluence in a 5% CO2 incubator at 37 °C. Different concentrations (0.1–100 µM) of the compounds in the culture medium (100 µL) to be tested were added, and the plate was incubated for 30 min. […] The supernatant was aspirated, and the cells were fixed for 20 min with 4% PFA (100 µL), protecting them from light. Three washes with ice-cold PBS and three washes with saline buffer followed, and then the plate was analyzed (λex 350 nm and λem 460 nm) by Victor3 (PerkinElmer). EC50 values were calculated from the percentage increase in fluorescence compared to log[dose].

T1 sequence (Q16740 with tags, fused parts or gaps): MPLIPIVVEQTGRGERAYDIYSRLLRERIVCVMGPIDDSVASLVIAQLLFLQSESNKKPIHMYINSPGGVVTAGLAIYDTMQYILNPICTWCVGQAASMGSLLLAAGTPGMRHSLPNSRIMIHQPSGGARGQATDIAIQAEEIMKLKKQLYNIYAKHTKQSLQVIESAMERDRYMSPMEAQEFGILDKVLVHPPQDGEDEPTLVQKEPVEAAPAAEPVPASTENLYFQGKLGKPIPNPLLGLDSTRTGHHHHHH

Row | Compound | activation of hClpP (hClpP) [%] | cancer cell death (cytotoxic effect) (SU-DIPG-36 cells) [%] | cancer cell death (cytotoxic effect) (SU-DIPG-50 cells) [%] | viability at 100 µM (SH-SY-5Y spheroids) [%] | decrease in cell viability (SH-SY-5Y spheroids) | viability at 100 µM (SK-N-AS spheroids) [%] | decrease in cell viability (SK-N-AS spheroids) | EC50 (P-gp) [µM] | Papp A→B at 120 min ([1]; Caco-2, apical-basolateral) [×10⁻⁶ cm/s] | Papp B→A at 120 min ([1]; Caco-2, basolateral-apical) [×10⁻⁶ cm/s] | EC50 (BCRP) [µM]
1 | COc1ccc2c3c([nH]c2c1)C(C)=NCC3 [Harmaline, 7-methoxy-1-methyl-4,9-dihydro-3H-pyrido[3,4-b]indole] | 28 | 34 | 50 | 67.5 ± 13.9 | ~ 32.5% | 44.2 ± 24.2 | ~ 56% | > 100 | 49.6 | 254 | 14.9
2 | Cc1ccccc1CN1C(=O)C2=C(CCN(Cc3ccccc3)C2)N2CCN=C12 [ONC201, reference compound] | – | 83 | 70 | 13.7 ± 6.23 | ~ 85% | 17.5 ± 6.8 | ~ 85% | 13.4 | – | – | –
